# Source: PMC6981581, “N-(2-Arylmethylthio-4-Chloro-5-Methylbenzenesulfonyl)amide Derivatives as Potential Antimicrobial Agents—Synthesis and Biological Studies” (International Journal of Molecular Sciences, 2019)
# Where “and” joins values, the source holds several entries; their conditions need not be identical. Identical values can stand only once. Like-named read-outs stand apart in the source and are kept apart here.
# Assays:
# Format in all cases: cell-based
# [1] = tested on: Enterococcus faecalis ATCC 11420; assay: Broth dilution MIC/MBC, reference strain; conditions: for MBC/MIC: E. f. ATCC 11420; for MBC / MIC: Enterococcus faecalis, ATCC11420
# Experimental: (§1) The tests were carried out using a serial dilution method, allowing the determination of MIC (minimal concentration inhibiting bacterial growth), MBC (minimal bactericidal concentration), and MFC (minimal fungicidal concentration) values.
# (§2) Antimicrobial activity was tested using the following reference strains: Staphylococcus aureus ATCC 6538 (MSSA), Staphylococcus aureus ATCC 43300 (MRSA), Staphylococcus epidermidis PCM 2118, Escherichia coli ATCC 11229, Pseudomonas aeruginosa ATCC 15442, Proteus vulgaris NCTC 4635, Enterococcus faecalis ATCC 11420, and Candida albicans ATCC 10231.
# (§3) A broth dilution method was used to determine minimal inhibitory concentration (MIC) for tested compounds as recommended by Clinical Laboratory Standards Institute (CLSI) guidelines. Investigated compounds were diluted in Mueller Hinton Broth 2 (Sigma-Aldrich Co., St. Louis, MO, USA) in polypropylene 96-well plates and initial inoculum 5 × 10^5 cfu/mL were incubated at 37 °C for 18 h. MIC was taken as the lowest drug concentration at which an observable growth was inhibited. […] The loopful (10 µL) of the tested sample was transferred to Tryptic Soy Agar (TSA, Becton-Dickinson, Franklin Lakes, NJ, USA) and incubated at 37 °C for 48 h. […] Drug Solutions were made fresh on the day of the assay. All experiments were performed in triplicate.
# [2] = tested on: Escherichia coli ATCC 11229; assay: Broth dilution MIC/MBC, reference strain; conditions: for MBC/MIC: E. c. ATCC 11229; for MBC / MIC: Escherichia coli, ATCC11229
# Experimental: as §1, §2, §3
# [3] = tested on: Proteus vulgaris NCTC 4635; assay: Broth dilution MIC/MBC, reference strain; conditions: for MBC/MIC: P. v. NCTC 4635; for MBC / MIC: Proteus vulgaris, NCTC4635
# Experimental: as §1, §2, §3
# [4] = tested on: Pseudomonas aeruginosa ATCC 15442; assay: Broth dilution MIC/MBC, reference strain; conditions: for MBC/MIC: P. a. ATCC 15442; for MBC / MIC: Pseudomonas aeruginosa, ATCC15442
# Experimental: as §1, §2, §3
# [5] = tested on: Staphylococcus aureus ATCC 43300 (MRSA); assay: Broth dilution MIC/MBC, reference strain; conditions: for MBC/MIC: S. a. ATCC 43300; for MBC / MIC: Staphylococcus aureus
# Experimental: as §1, §2, §3
# [6] = tested on: Staphylococcus aureus ATCC 6538 (MSSA); assay: Broth dilution MIC/MBC, reference strain; conditions: for MBC/MIC: S. a. ATCC 6538; for MBC / MIC: Staphylococcus aureus
# Experimental: as §1, §2, §3
# [7] = tested on: Staphylococcus epidermidis PCM 2118; assay: Broth dilution MIC/MBC, reference strain; conditions: for MBC/MIC: S. e. PCM 2118
# Experimental: as §1, §2, §3
# [8] = tested on: Candida albicans ATCC 10231; assay: Broth dilution MIC/MFC, reference fungal strain; conditions: for MFC/MIC: C. a. ATCC 10231; for MFC / MIC: Candida albicans, ATCC10231
# Experimental: as §1, §2, §3
# [9] = tested on: HaCaT cell line (human keratinocyte); assay: MTT cell viability assay; conditions: MTT assay, 72 h incubation, mean ± SD, read-out: IC50 HaCaT
# HCT-116 (colon cancer) = assay: MTT cell viability assay; conditions: Homo sapiens, 72 h incubation, mean ± SD
# Experimental: (§4) Analysis was performed using the MTT test and 72 h of incubation.
# (§5) All chemicals were obtained from Sigma-Aldrich (St. Louis, MO, USA). The MCF-7 and HeLa cell lines were purchased from Cell Lines Services (Eppelheim, Germany), the HCT-116 cell line was purchased from ATCC (ATCC-No: CCL-247). Cells were cultured in Dulbecco’s modified Eagle’s medium (DMEM) supplemented with 10% fetal bovine serum, 2 mM glutamine, 100 units/mL penicillin, and 100 μg/mL streptomycin. Cultures were held in an incubator (Heraceus, HeraCell) in a humidified atmosphere with 5% CO2 at 37 °C.
# (§6) Cell viability was evaluated using the MTT (3-(4,5-dimethylthiazol-2-yl)-2,5-diphenyltetrazolium bromide) assay. Stock solutions of the studied compounds were obtained in 100% DMSO. […] Cells at a density of 5 × 10^3 cells/well, seeded in 96-well plates, were treated for 72 h with the tested compounds in the concentration range 1–100 μM (1, 10, 25, 50 and 100 μM). After treatment, cells were incubated for 2 h with MTT (0.5 mg/mL) at 37 °C. Cells were lysed with DMSO and the absorbance of the formazan solution was measured at 550 nm with a plate reader (1420 multilabel counter, Victor, Jügesheim, Germany). Values are expressed as the mean ± SD of at least three independent experiments conducted in triplicate.
# HeLa (cervical cancer) = assay: MTT cell viability assay; conditions: Homo sapiens, 72 h incubation, mean ± SD
# Experimental: as §4, §5, §6
# MCF-7 (breast cancer) = assay: MTT cell viability assay; conditions: Homo sapiens, MCF7, 72 h incubation, mean ± SD
# Experimental: as §4, §5, §6
# [10] = E. faecalis ATCC 11420, read-out: MBC
# [11] = E. faecalis ATCC 11420, read-out: MIC
# [12] = E. coli ATCC 11229, read-out: MBC
# [13] = E. coli ATCC 11229, read-out: MIC
# [14] = P. vulgaris NCTC 4635, read-out: MBC
# [15] = P. vulgaris NCTC 4635, read-out: MIC
# [16] = P. aeruginosa ATCC 15442, read-out: MBC
# [17] = P. aeruginosa ATCC 15442, read-out: MIC
# [18] = S. aureus ATCC 43300, read-out: MBC
# [19] = S. aureus ATCC 43300, read-out: MIC
# [20] = S. aureus ATCC 6538, read-out: MBC
# [21] = S. aureus ATCC 6538, read-out: MIC
# [22] = Staphylococcus epidermidis, PCM2118, S. epidermidis PCM 2118, read-out: MBC
# [23] = Staphylococcus epidermidis, PCM2118, S. epidermidis PCM 2118, read-out: MIC
# [24] = C. albicans ATCC 10231, read-out: MFC
# [25] = C. albicans ATCC 10231, read-out: MIC
# [26] = Staphylococcus epidermidis, PCM2118
# [27] = Staphylococcus epidermidis, PCM2118, S. epidermidis PCM 2118
SMILES,MBC/MIC [1],"MBC [1, 10] [µg/mL]","MIC [1, 11] [µg/mL]",MBC/MIC [2],"MBC [2, 12] [µg/mL]","MIC [2, 13] [µg/mL]",MBC/MIC [3],"MBC [3, 14] [µg/mL]","MIC [3, 15] [µg/mL]",MBC/MIC [4],"MBC [4, 16] [µg/mL]","MIC [4, 17] [µg/mL]",MBC/MIC [5],"MBC [5, 18] [µg/mL]","MIC [5, 19] [µg/mL]",MBC/MIC [6],"MBC [6, 20] [µg/mL]","MIC [6, 21] [µg/mL]",MBC/MIC [7],MFC/MIC [8],other results
"Cc1cc(S(=O)(=O)NC(=O)CCC2CCCCC2)c(SCc2cccc3ccccc23)cc1Cl [Compound 11, N-[4-Chloro-5-methyl-2-(naphthalen-1-ylmethylthio)benzenesulfonyl]-3-cyclohexylpropanamide]",>16,> 128,8,>1,> 128,128,>1,> 128,> 128,>1,> 128,128,>16,> 128,8,>16,> 128,8,>32,2,"MBC [7, 22]: > 128 µg/mL; MIC [7, 23]: 4 µg/mL; MFC [8, 24]: 128 µg/mL; MIC [8, 25]: 64 µg/mL; IC50 [9]: 42 µg/mL and 81 µM; IC50 (HCT-116 (colon cancer)): 66 ± 1 µM; IC50 (HeLa (cervical cancer)): 42 ± 2 µM; IC50 (MCF-7 (breast cancer)): 82 ± 4 µM"
"Cc1cc(S(=O)(=O)NC(=O)CCC2CCCCC2)c(SCc2ccc(C(F)(F)F)cc2)cc1Cl [Compound 9, N-[4-Chloro-5-methyl-2-(4-trifluoromethylbenzylthio)benzenesulfonyl]-3-cyclohexylpropanamide]",>16,> 128,8,>1,> 128,128,>2,> 128,64,>1,> 128,128,>32,> 128,4,>16,> 128,8,2,2,"MBC ([7]; S. epidermidis PCM 2118): 8 µg/mL; MBC [7, 22]: 4 to 16 µg/mL; MIC [7, 23]: 4 µg/mL; MFC [8, 24]: 128 µg/mL; MIC [8, 25]: 64 µg/mL; IC50 [9]: 40 µg/mL and 74 µM; IC50 (HCT-116 (colon cancer)): 78 ± 2 µM; IC50 (HeLa (cervical cancer)): 90 ± 4 µM; IC50 (MCF-7 (breast cancer)): 65 ± 3 µM"
"Cc1cc(S(=O)(=O)NC(=O)CCC2CCCCC2)c(SCc2ccc3ccccc3c2)cc1Cl [Compound 12, N-[4-Chloro-5-methyl-2-(naphthalen-2-ylmethylthio)benzenesulfonyl]-3-cyclohexylpropanamide]",>4,> 128,32,>1,> 128,128,>1,> 128,128,1,128,128,>16,> 128,8,16,128,8,32,2,"MBC [7, 22]: 128 µg/mL; MIC [7, 23]: 4 µg/mL; MFC [8, 24]: 128 µg/mL; MIC [8, 25]: 64 µg/mL; IC50 [9]: 47 µg/mL and 92 µM; IC50 (HCT-116 (colon cancer)): 77 ± 3 µM; IC50 (HeLa (cervical cancer)): 88 ± 3 µM; IC50 (MCF-7 (breast cancer)): 94 ± 3 µM"
"Cc1cc(S(=O)(=O)NC(=O)CCC2CCCCC2)c(SCc2ccccc2)cc1Cl [Compound 8, N-(2-Benzylthio-4-chloro-5-methylbenzenesulfonyl)-3-cyclohexylpropanamide]",,,,,,,,,,,,,,,,,,,,,"MBC [1]: > 128 µg/mL; MIC [1]: 128 µg/mL; MBC [2]: > 128 µg/mL; MIC [2]: 128 µg/mL; MBC [3]: > 128 µg/mL; MIC [3]: 64 µg/mL; MBC [4]: > 128 µg/mL; MIC [4]: 128 µg/mL; MBC [5]: > 128 µg/mL; MIC [5]: 16 µg/mL; MBC [6]: > 128 µg/mL; MIC [6]: 32 µg/mL; MIC [7, 26]: 8 µg/mL; MBC [7, 27]: 32 µg/mL; MFC [8]: 128 µg/mL; MIC [8]: 64 µg/mL"
"Cc1cc(S(=O)(=O)NC(=O)C=Cc2ccccc2)c(SCc2ccccc2)cc1Cl [Compound 13, N-{[2-(Benzylthio)-4-chloro-5-methylphenyl]sulfonyl}cinnamamide]",>1,,,>1,,,>1,,,>1,,,>4,,,>4,,,>4,2,"MBC [1]: > 128 µg/mL; MIC [1]: > 128 µg/mL; MBC [2]: > 128 µg/mL; MIC [2]: 128 µg/mL; MBC [3]: > 128 µg/mL; MIC [3]: 128 µg/mL; MBC [4]: > 128 µg/mL; MIC [4]: 128 µg/mL; MBC [5]: > 128 µg/mL; MIC [5]: 32 µg/mL; MBC [6]: > 128 µg/mL; MIC [6]: 32 µg/mL; MIC [7, 26]: 32 µg/mL; MBC [7, 27]: > 128 µg/mL; MFC [8]: 128 µg/mL; MIC [8]: 64 µg/mL"
"Cc1cc(S(=O)(=O)NC(=O)C=Cc2ccccc2)c(SCc2ccc(C(F)(F)F)cc2)cc1Cl [Compound 14, N-[4-Chloro-5-methyl-2-(4-trifluoromethylbenzylthio)benzenesulfonyl]cinnamamide]",>8,> 128,16,1,128,128,>1,> 128,128,2,128,64,16,128,8,16,128,8,2,2,"MIC [7, 23]: 8 µg/mL; MFC [8, 24]: 128 µg/mL; MIC [8, 25]: 64 µg/mL; IC50 [9]: 147 µg/mL and 280 µM; IC50 (HCT-116 (colon cancer)): 81 ± 1 µM; IC50 (HeLa (cervical cancer)): 96 ± 5 µM; IC50 (MCF-7 (breast cancer)): 73 ± 1 µM"
"Cc1cc(S(=O)(=O)NC(=O)C=Cc2ccccc2)c(SCc2cccc(C(F)(F)F)c2)cc1Cl [Compound 15, N-[4-Chloro-5-methyl-2-(3-trifluoromethylbenzylthio)benzenesulfonyl]cinnamamide]",>8,> 128,16,1,128,128,>2,> 128,64,2,128,64,16,128,8,16,128,8,1,2,"MBC ([7]; S. epidermidis PCM 2118): 8 µg/mL; MBC [7, 22]: 4 to 16 µg/mL; MIC [7, 23]: 8 µg/mL; MFC [8, 24]: 128 µg/mL; MIC [8, 25]: 64 µg/mL; IC50 [9]: 79 µg/mL and 150 µM; IC50 (HCT-116 (colon cancer)): 86 ± 2 µM; IC50 (HeLa (cervical cancer)): 165 ± 9 µM; IC50 (MCF-7 (breast cancer)): 93 ± 3 µM"
